In patent publication US7956039B2, “Use of amygdalin analogues for the treatment of psoriasis” (Universitat Politècnica De Catalunya, priority 2004, dated 2011):

Tests used:
Blood mononuclear cells = experiment: Monocyte chemotaxis assay in modified Boyden chamber; format: cell-based, human; settings: for −log[A] (concentration of maximum chemotactic index): concentration [A] at which the maximum chemotactic index occurs; for Chemotactic index (maximum value): ratio of migration distance towards attractant to distance towards buffer, tested 10^−12 to 10^−7 mol/L
Procedure: Activity of Compounds (I) in Monocyte Chemotaxis Assays
Blood mononuclear cells were isolated from heparinized blood of human volunteers by Ficoll sedimentation. Chemotaxis was measured in a modified Boyden chamber using a Millipore […] that divided the upper and lower compartments. Mononuclear cells (0.5×10^6) in Krebs-Ringer phosphate (KRP) buffer were placed into the upper wells. Compounds (I) were dissolved in DMSO at 10^−2 mol/L, diluted with KRP buffer containing 1 mg/mL of bovine serum albumin and tested in the bottom compartment at a final concentration ranging from 10^−12 to 10^−7 mol/L. For an accurate comparison, the results of the different analogues were expressed as chemotactic index, which is the ratio of the distance of migration towards tested attractant and the distance towards the buffer. Migration in the presence of buffer was only […] (mean±SEM). Maximum migration for CHO-Met-Leu-Phe-OH (FMLP) occurred at 10^−8 mol/L and was […] in these experiments (chemotactic index 1.94±0.03). CD4 receptor binding for the test analogues was confirmed by blocking their chemotactic effects using low concentrations (0.1-0.2 mg/mL) of OKT4, a specific monoclonal antibody for CD4 molecules. In this test, migration response was not influenced by OKT4.

monocytes = settings: cited from earlier work

Molecule | −log[A] (concentration of maximum chemotactic index) (Blood mononuclear cells) | Chemotactic index (maximum value) (Blood mononuclear cells) | Chemotactic profile compared with peptide T (monocytes) | Concentration of maximum migration (Blood mononuclear cells) | Chemotactic index (Blood mononuclear cells; at maximum migration, 10^−8 mol/L)
CCC(O[C@@H]1O[C@H](CO[C@@H]2O[C@H](CO)[C@@H](O)[C@H](O)[C@H]2O)[C@@H](O)[C@H](O)[C@H]1O)c1ccccc1 (mixture of isomers) [Compound (I-4), (1 RS)-1-phenylpropyl 6-O-(β-D-glucopyranosyl)-β-D-glucopyranoside] | 6 | 0.75 |  |  | 
CC(C)(C)C(O[C@@H]1O[C@H](CO[C@@H]2O[C@H](CO)[C@@H](O)[C@H](O)[C@H]2O)[C@@H](O)[C@H](O)[C@H]1O)c1ccccc1 (mixture of isomers) [Compound (I-5), (1RS) 1-phenyl-2,2-dimethylpropyl-6-O-(β-D-glucopyranosyl)-β-D-glucopyranoside] | 9 | 0.84 |  |  | 
N#C[C@H](O[C@@H]1O[C@H](CO[C@@H]2O[C@H](CO)[C@@H](O)[C@H](O)[C@H]2O)[C@@H](O)[C@H](O)[C@H]1O)c1ccccc1 [Amygdalin, amygdalin] | 10 | 0.63 | chemotactic profile similar to that of peptide T |  | 
COc1ccc(CO[C@@H]2O[C@H](CO[C@@H]3O[C@H](CO)[C@@H](O)[C@H](O)[C@H]3O)[C@@H](O)[C@H](O)[C@H]2O)cc1 [Compound (I-1), 4-methoxybenzyl 6-O-(β-D-glucopyranosyl)-β-D-Glucopyranoside] | 10 | 0.87 |  |  | 
OC[C@H]1O[C@@H](OC[C@H]2O[C@@H](OCc3ccccc3)[C@H](O)[C@@H](O)[C@@H]2O)[C@H](O)[C@@H](O)[C@@H]1O [Compound (I-2), benzyl 6-O-(β-D-glucopyranosyl)4-D-glycopyranoside] | 8 | 0.76 |  |  | 
CC(O[C@@H]1O[C@H](CO[C@@H]2O[C@H](CO)[C@@H](O)[C@H](O)[C@H]2O)[C@@H](O)[C@H](O)[C@H]1O)c1ccccc1 (stereo partly drawn) [Compound (I-3), (1 RS)-1-phenylethyl-6-O-(β-D-glucopyranosyl)-β-D-glucopyranoside] | 8 | 0.77 |  |  | 
O=C(O)[C@H](O[C@@H]1O[C@H](CO[C@@H]2O[C@H](CO)[C@@H](O)[C@H](O)[C@H]2O)[C@@H](O)[C@H](O)[C@H]1O)c1ccccc1 [Compound (I-6), (2R) (6-O-(β-D-glucopyranosyl)-β-D-glucopyranosyloxy)-phenylacetic acid] | 9 | 0.85 |  |  | 
NC(=O)[C@H](O[C@@H]1O[C@H](CO[C@@H]2O[C@H](CO)[C@@H](O)[C@H](O)[C@H]2O)[C@@H](O)[C@H](O)[C@H]1O)c1ccccc1 [Compound (I-7)] | 7 | 0.84 |  |  | 
C#CC(O[C@@H]1O[C@H](CO[C@@H]2O[C@H](CO)[C@@H](O)[C@H](O)[C@H]2O)[C@@H](O)[C@H](O)[C@H]1O)c1ccccc1 (stereo partly drawn) [Compound (I-8), (1 RS) 1-phenyl-2-propynyl-6-O-(β-D-Glucopyranosyl)-β-D-glucopyranoside] | 6 | 0.79 |  |  | 
OC[C@H]1O[C@@H](OC[C@H]2O[C@@H](OCc3ccccc3Cl)[C@H](O)[C@@H](O)[C@@H]2O)[C@H](O)[C@@H](O)[C@@H]1O [Compound (I-10), 2-chlorobenzyl 6-O-(β-D-gluconyranosyl)-β-D-Glucopyranoside] | 10 | 0.94 |  |  | 
COc1ccc(CO[C@@H]2O[C@H](CO[C@@H]3O[C@H](CO)[C@@H](O)[C@H](O)[C@H]3O)[C@@H](O)[C@H](O)[C@H]2O)c(OC)c1 [Compound (I-11), 2.4-dimethoxybenzyl 6-O-(β-D-glucopyranosyl)-β-D-glucopyranoside] | 10 | 0.84 |  |  | 
OC[C@H]1O[C@@H](OC[C@H]2O[C@@H](OCCc3ccccc3)[C@H](O)[C@@H](O)[C@@H]2O)[C@H](O)[C@@H](O)[C@@H]1O [Compound (I-17), 2-phenylethyl 6-O-(β-D-glucopyranosyl)-β-D-glucopyranoside] | 9 | 0.70 |  |  | 
CHO-Met-Leu-Phe-OH [FMLP, reference compound] |  |  |  | 10^−8 mol/L | 1.94±0.03
